Experiments:
[1] = tested on: C. difficile infection (CDI); test: CDI trial: subgroup analysis of diarrhea at TOC; assay type: in vivo, human; conditions: for Diarrhea, number of subjects / Diarrhea, percent of subjects / No Diarrhea, number of subjects / No Diarrhea, percent of subjects: at TOC; for Diarrhea at TOC: Treatment Difference: Rifaximin vs Vancomycin
Source text: Tables 42 and 43 set forth a subgroup analysis of diarrhea at TOC.

subjects with IBS = test: Analysis of two studies after 3 months: global IBS symptoms, abdominal pain, bloating responders; assay type: in vivo, human; conditions: for Responders: Abdominal pain reduction of 1 point in median: at least 2 weeks during PEP
Source text: A measure of efficacy is based on subjects' answers to the Weekly Subject Global Assessment (SGA) questions over the study duration in relation to their IBS symptoms.
The study endpoints of the studies were Global IBS symptoms and AUC in abdominal pain during the study.
The primary and secondary endpoints evaluated in this study were the effect of treatment on the percentage of subjects who reported adequate relief of Global IBS symptoms, reduction in abdominal pain and the adequate relief of IBS symptom of bloating.

[2] = subgroup Age <65, Rifaximin N = 69, Vancomycin N = 62
[3] = subgroup Age >=65, Rifaximin N = 39, Vancomycin N = 49
[4] = subgroup Female, Rifaximin N = 68, Vancomycin N = 64
[5] = subgroup Male, Rifaximin N = 40, Vancomycin N = 47

**Q.** For `CO[C@H]1/C=C/O[C@@]2(C)Oc3c(C)c(O)c4c(O)c(c5c(nc6cc(C)ccn65)c4c3C2=O)NC(=O)/C(C)=C\C=C\[C@H](C)[C@H](O)[C@@H](C)[C@@H](O)[C@@H](C)[C@H](OC(C)=O)[C@@H]1C` [Rifaximin, (2S,16Z,18E,20S,21S,22R, 23R,24R,25S,26S,27S,28E)-5,6,21,23,25 Pentahydroxy-27-methoxy-2,4,11,16,20,22,24,26-octamethyl-2,7-(epoxypentadeca-(1,11,13)trienimino) benzofuro (4,5-e) pyrido(1,2,-a) benzimidazole-1,15(2H)-dione,25-acetate], which “Diarrhea, number of subjects” value [1, 2] is on record?
**A.** 16

**Q.** And the “Diarrhea, percent of subjects” value [1, 2]?
**A.** (23%)

**Q.** And the “No Diarrhea, number of subjects” value [1, 2]?
**A.** 53

**Q.** And the “No Diarrhea, percent of subjects” value [1, 2]?
**A.** (77%)

**Q.** What about the “Diarrhea, number of subjects” value [1, 3] of the same compound?
**A.** 6

**Q.** What about the “Diarrhea, percent of subjects” value [1, 3] of the same compound?
**A.** (15%)

**Q.** What about the “No Diarrhea, number of subjects” value [1, 3] of the same compound?
**A.** 33

**Q.** What about the “No Diarrhea, percent of subjects” value [1, 3] of the same compound?
**A.** (85%)

**Q.** What about the “Diarrhea, number of subjects” value [1, 4] of the same compound?
**A.** 14

**Q.** What about the “Diarrhea, percent of subjects” value [1, 4] of the same compound?
**A.** (21%)

**Q.** What about the “No Diarrhea, number of subjects” value [1, 4] of the same compound?
**A.** 54

**Q.** And the “No Diarrhea, percent of subjects” value [1, 4]?
**A.** (79%)

**Q.** And the “Diarrhea, number of subjects” value [1, 5]?
**A.** 8

**Q.** What about the “Diarrhea, percent of subjects” value [1, 5] of the same compound?
**A.** (20%)

**Q.** What about the “No Diarrhea, number of subjects” value [1, 5] of the same compound?
**A.** 32

**Q.** And the “No Diarrhea, percent of subjects” value [1, 5]?
**A.** (80%)

**Q.** What about the “Diarrhea at TOC: Treatment Difference” value ([1]; subgroup Age <65) of the same compound?
**A.** −3.8%

**Q.** And the “Diarrhea at TOC: Treatment Difference” value ([1]; subgroup Age >=65)?
**A.** 3.0%

**Q.** What about the “Diarrhea at TOC: Treatment Difference” value ([1]; subgroup Female) of the same compound?
**A.** −3.4%

**Q.** What about the “Diarrhea at TOC: Treatment Difference” value ([1]; subgroup Male) of the same compound?
**A.** 1.3%

**Q.** What about the “IBS symptom of Bloating: at least 2 out of 4 weeks adequate relief during weeks 3 through 6” value (“IBS symptom of Bloating” below) (subjects with IBS; Combined) of the same compound?
**A.** 30% vs 40%

**Q.** What about the “Responders: Abdominal Pain reduction of 2 point in mean” value (subjects with IBS; Combined) of the same compound?
**A.** 18% vs 25%

**Q.** What about the “Responders: Abdominal Pain reduction of 2 point in median” value (subjects with IBS; Combined) of the same compound?
**A.** 32% vs 39%

**Q.** And the “Responders: Abdominal Pain reduction of 3 point in mean” value (subjects with IBS; Combined)?
**A.** 6% vs 7%

**Q.** What about the “Responders: Abdominal Pain reduction of 3 point in median” value (subjects with IBS; Combined) of the same compound?
**A.** 18% vs 21%

**Q.** What about the “Responders: Abdominal pain reduction of 1 point in mean” value (subjects with IBS; Combined) of the same compound?
**A.** 42% vs 52%

**Q.** And the “Responders: Daily abdominal pain <2” value (subjects with IBS; Combined)?
**A.** 31% vs 39%

**Q.** What about the “Responders: Overall reduction of mean weekly abdominal pain by > = 25%” value (subjects with IBS; Combined) of the same compound?
**A.** 47% vs 57%

**Q.** What about the “Responders: Overall reduction of mean weekly abdominal pain by > = 50%” value (subjects with IBS; Combined) of the same compound?
**A.** 28% vs 35%

**Q.** What about the “Responders: Overall reduction of mean weekly abdominal pain by > = 75%” value (subjects with IBS; Combined) of the same compound?
**A.** 11% vs 14%

**Q.** And the “Responders: Overall reduction of median weekly abdominal pain by > = 25%” value (subjects with IBS; Combined)?
**A.** 52% vs 62%

**Q.** What about the “Responders: Overall reduction of median weekly abdominal pain by > = 50%” value (subjects with IBS; Combined) of the same compound?
**A.** 34% vs 44%

**Q.** And the “Responders: Overall reduction of median weekly abdominal pain by > = 75%” value (subjects with IBS; Combined)?
**A.** 18% vs 21%

**Q.** What about the “Responders: Abdominal pain reduction of 1 point in median” value (subjects with IBS; Combined) of the same compound?
**A.** 53% vs 63%

**Q.** What about the “IBS symptom of Bloating” value (subjects with IBS; Study 2) of the same compound?
**A.** 32% vs 41%

**Q.** And the “Responders: Abdominal Pain reduction of 2 point in mean” value (subjects with IBS; Study 2)?
**A.** 18% vs 25%

**Q.** And the “Responders: Abdominal Pain reduction of 2 point in median” value (subjects with IBS; Study 2)?
**A.** 30% vs 41%

**Q.** What about the “Responders: Abdominal Pain reduction of 3 point in mean” value (subjects with IBS; Study 2) of the same compound?
**A.** 6% vs 7%

**Q.** What about the “Responders: Abdominal Pain reduction of 3 point in median” value (subjects with IBS; Study 2) of the same compound?
**A.** 17% vs 21%

**Q.** And the “Responders: Abdominal pain reduction of 1 point in mean” value (subjects with IBS; Study 2)?
**A.** 43% vs 52%

**Q.** What about the “Responders: Daily abdominal pain <2” value (subjects with IBS; Study 2) of the same compound?
**A.** 31% vs 39%

**Q.** And the “Responders: Overall reduction of mean weekly abdominal pain by > = 25%” value (subjects with IBS; Study 2)?
**A.** 47% vs 58%

**Q.** And the “Responders: Overall reduction of mean weekly abdominal pain by > = 50%” value (subjects with IBS; Study 2)?
**A.** 29% vs 35%

**Q.** And the “Responders: Overall reduction of mean weekly abdominal pain by > = 75%” value (subjects with IBS; Study 2)?
**A.** 11% vs 14%

**Q.** And the “Responders: Overall reduction of median weekly abdominal pain by > = 25%” value (subjects with IBS; Study 2)?
**A.** 52% vs 62%

**Q.** And the “Responders: Overall reduction of median weekly abdominal pain by > = 50%” value (subjects with IBS; Study 2)?
**A.** 35% vs 44%

**Q.** And the “Responders: Overall reduction of median weekly abdominal pain by > = 75%” value (subjects with IBS; Study 2)?
**A.** 17% vs 20%

**Q.** What about the “Responders: Abdominal pain reduction of 1 point in median” value (subjects with IBS; Study 2) of the same compound?
**A.** 53% vs 62%

**Q.** What about the “IBS symptom of Bloating” value (subjects with IBS; Study [1]) of the same compound?
**A.** 29% vs 40%

**Q.** What about the “Responders: Abdominal Pain reduction of 2 point in mean” value (subjects with IBS; Study [1]) of the same compound?
**A.** 18% vs 26%

**Q.** And the “Responders: Abdominal Pain reduction of 2 point in median” value (subjects with IBS; Study [1])?
**A.** 33% vs 37%

**Q.** And the “Responders: Abdominal Pain reduction of 3 point in mean” value (subjects with IBS; Study [1])?
**A.** 6% vs 7%

**Q.** And the “Responders: Abdominal Pain reduction of 3 point in median” value (subjects with IBS; Study [1])?
**A.** 19% vs 22%

**Q.** And the “Responders: Abdominal pain reduction of 1 point in mean” value (subjects with IBS; Study [1])?
**A.** 41% vs 52%

**Q.** What about the “Responders: Overall reduction of mean weekly abdominal pain by > = 25%” value (subjects with IBS; Study [1]) of the same compound?
**A.** 47% vs 56%

Source: patent publication US20130184302A1, “METHODS FOR TREATING IRRITABLE BOWEL SYNDROME (IBS) AND INFECTIONS” (priority 2011, published 2013)
